Where a chain is given by its changes, count along the chain named. The source made the active and inactive calls. No cut-off for these calls is given here.
What was measured:
[1] = target: T1, Aldo-keto reductase family 1 member C3 (Homo sapiens, UniProt P42330); test: Inhibition of His-tagged human AKR1C3 expressed in Escherichia coli BL21 (DE3) assessed as inhibition of reduction of non-fluorescent ketone probe to fluorescent alcohol after 1 hr by competitive fluorescence assay
T1 sequence (P42330 whole entry): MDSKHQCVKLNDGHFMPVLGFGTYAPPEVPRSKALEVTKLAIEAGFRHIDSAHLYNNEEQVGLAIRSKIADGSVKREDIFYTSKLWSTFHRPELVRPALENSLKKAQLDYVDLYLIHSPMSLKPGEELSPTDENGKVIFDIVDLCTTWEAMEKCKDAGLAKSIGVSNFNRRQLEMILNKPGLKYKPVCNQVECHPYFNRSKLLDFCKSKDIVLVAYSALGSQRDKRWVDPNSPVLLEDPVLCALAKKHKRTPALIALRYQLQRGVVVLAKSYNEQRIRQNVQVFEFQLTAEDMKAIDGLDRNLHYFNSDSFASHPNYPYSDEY

[2] = target: T1, Aldo-keto reductase family 1 member C3; test: Inhibition of recombinant AKR1C3 (unknown origin) overexpressed in human HCT116 cells assessed as inhibition of aerobic reduction of dinitrobenzamide PR-104A to its hydroxylamine metabolite by LC-MS/MS assay; assay type: cell-based, HCT-116
[3] = target: T2, Aldo-keto reductase family 1 member C4 (Homo sapiens, UniProt P17516); test: Inhibition of His-tagged human AKR1C4 expressed in Escherichia coli BL21 (DE3) assessed as inhibition of reduction of non-fluorescent ketone probe to fluorescent alcohol after 1 hr by competitive fluorescence assay
T2 sequence (P17516 whole entry): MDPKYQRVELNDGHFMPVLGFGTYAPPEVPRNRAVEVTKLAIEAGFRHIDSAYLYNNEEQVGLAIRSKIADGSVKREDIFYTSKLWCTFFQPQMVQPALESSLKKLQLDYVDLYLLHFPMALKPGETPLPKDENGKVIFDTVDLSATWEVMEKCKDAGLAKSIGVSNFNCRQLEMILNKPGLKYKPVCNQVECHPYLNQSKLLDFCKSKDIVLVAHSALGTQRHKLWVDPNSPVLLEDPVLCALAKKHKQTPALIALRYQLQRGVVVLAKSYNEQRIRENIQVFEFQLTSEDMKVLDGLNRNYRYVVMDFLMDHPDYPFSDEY

[4] = target: T3, Aldo-keto reductase family 1 member C2 (Homo sapiens, UniProt P52895); test: Inhibition of His-tagged human AKR1C2 expressed in Escherichia coli BL21 (DE3) assessed as inhibition of reduction of non-fluorescent ketone probe to fluorescent alcohol after 1 hr by competitive fluorescence assay
T3 sequence (P52895 whole entry): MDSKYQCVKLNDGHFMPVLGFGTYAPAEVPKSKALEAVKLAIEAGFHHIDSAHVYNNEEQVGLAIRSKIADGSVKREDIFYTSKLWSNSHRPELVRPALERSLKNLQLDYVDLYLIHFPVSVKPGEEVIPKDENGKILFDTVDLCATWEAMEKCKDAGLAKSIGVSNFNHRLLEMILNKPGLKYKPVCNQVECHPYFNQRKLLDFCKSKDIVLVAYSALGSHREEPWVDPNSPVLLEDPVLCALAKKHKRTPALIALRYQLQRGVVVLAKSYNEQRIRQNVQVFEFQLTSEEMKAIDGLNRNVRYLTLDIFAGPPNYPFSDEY

[5] = target: T4, Aldo-keto reductase family 1 member C1 (Homo sapiens, UniProt Q04828); test: Inhibition of His-tagged human AKR1C1 expressed in Escherichia coli BL21 (DE3) assessed as inhibition of reduction of non-fluorescent ketone probe to fluorescent alcohol after 1 hr by competitive fluorescence assay
T4 sequence (Q04828 whole entry): T3 sequence (P52895 whole entry) with V38T, H47R, V54L, S87C, M151V, H170R, L172Q

[6] = target: T5, Prostaglandin G/H synthase 2 (Homo sapiens, UniProt P35354); test: Inhibition of COX2 (unknown origin)
T5 sequence (P35354 whole entry): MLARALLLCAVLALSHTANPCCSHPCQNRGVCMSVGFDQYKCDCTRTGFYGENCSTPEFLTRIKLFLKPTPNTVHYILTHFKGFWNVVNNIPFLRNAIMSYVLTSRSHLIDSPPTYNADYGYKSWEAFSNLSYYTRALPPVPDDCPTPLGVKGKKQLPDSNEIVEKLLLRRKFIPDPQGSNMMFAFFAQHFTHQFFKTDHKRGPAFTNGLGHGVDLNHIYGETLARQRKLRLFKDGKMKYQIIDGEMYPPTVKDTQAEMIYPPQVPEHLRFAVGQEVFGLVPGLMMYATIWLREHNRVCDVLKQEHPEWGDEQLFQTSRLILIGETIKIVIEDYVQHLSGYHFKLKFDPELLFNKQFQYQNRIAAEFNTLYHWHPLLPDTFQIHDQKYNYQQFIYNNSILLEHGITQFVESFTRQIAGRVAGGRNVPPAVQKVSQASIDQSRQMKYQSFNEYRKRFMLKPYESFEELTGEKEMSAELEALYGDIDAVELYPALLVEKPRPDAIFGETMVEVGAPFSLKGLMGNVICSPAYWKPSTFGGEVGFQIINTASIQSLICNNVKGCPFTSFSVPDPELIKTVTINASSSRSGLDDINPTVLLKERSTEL

[7] = target: T6, Prostaglandin G/H synthase 1 (Homo sapiens, UniProt P23219); test: Inhibition of COX1 (unknown origin)
[8] = target: T6, Prostaglandin G/H synthase 1; test: Inhibition of COX1 (unknown origin) at 10 uM
[9] = target: T7, Prostaglandin G/H synthase 2 (Homo sapiens) (UniProt P35354); test: Inhibition of COX2 (unknown origin) at 10 uM
T7 sequence (whole entry): T5 sequence (P35354 whole entry)

[10] = target: T2, Aldo-keto reductase family 1 member C4; test: Inhibition of AKR1C4 (unknown origin)
[11] = target: T4, Aldo-keto reductase family 1 member C1; test: Inhibition of AKR1C1 (unknown origin)

T6 sequence (P23219 whole entry): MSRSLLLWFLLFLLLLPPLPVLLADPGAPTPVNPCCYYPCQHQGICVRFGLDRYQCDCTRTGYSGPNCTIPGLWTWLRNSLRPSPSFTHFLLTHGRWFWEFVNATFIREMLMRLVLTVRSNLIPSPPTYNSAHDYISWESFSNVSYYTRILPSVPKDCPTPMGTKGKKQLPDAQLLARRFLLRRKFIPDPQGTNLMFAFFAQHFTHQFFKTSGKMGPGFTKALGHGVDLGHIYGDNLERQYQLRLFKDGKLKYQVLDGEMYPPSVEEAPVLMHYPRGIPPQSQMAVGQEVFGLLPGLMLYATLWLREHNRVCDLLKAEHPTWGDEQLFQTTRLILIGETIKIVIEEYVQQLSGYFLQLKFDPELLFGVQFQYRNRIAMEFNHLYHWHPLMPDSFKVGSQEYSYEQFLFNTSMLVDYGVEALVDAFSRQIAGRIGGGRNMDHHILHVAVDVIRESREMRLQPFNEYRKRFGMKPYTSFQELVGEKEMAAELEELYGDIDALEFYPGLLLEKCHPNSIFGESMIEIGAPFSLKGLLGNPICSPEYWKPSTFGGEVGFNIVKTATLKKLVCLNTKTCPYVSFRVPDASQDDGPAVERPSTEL

Compound	IC50 [1]	IC50 [3]	IC50 [4]	IC50 [5]	other results
CC1CCCCN1C(=O)c1ccc(N2CCCC2=O)cc1 (stereo unspecified)	> 30 µM				
Cc1cc(S(=O)(=O)N2CCCCC2C)ccc1N1CCCC1=O (stereo unspecified)	10.2 µM				
C[C@H]1CCC[C@H](C)N1S(=O)(=O)c1ccc(N2CCCC2=O)cc1	0.056 µM	> 30 µM	> 30 µM	> 30 µM	IC50 [2]: 0.022 µM
Cc1cc(S(=O)(=O)N2CCCCC2C)c(C)cc1N1CCCC1=O (stereo unspecified)	> 30 µM				
CC1CCCCN1Cc1ccc(N2CCCC2=O)cc1 (stereo unspecified)	> 30 µM				
CC1CCCCN1S(=O)(=O)c1ccc(N2C(=O)CCC2=O)cc1 (stereo unspecified)	> 30 µM				
Cc1ccc(Cl)c(Nc2ccccc2C(=O)O)c1Cl [MECLOFENAMIC ACID]					IC50 [6]: 0.7 µM; IC50 [7]: 0.22 µM
O=C1CCCN1c1ccc(S(=O)(=O)N2CCc3ccccc3C2)cc1	0.052 µM				
O=C1CCCN1c1ccc(S(=O)(=O)N2CCCCC2)cc1	0.14 µM	> 30 µM	> 30 µM	> 30 µM	inhibition [8]: inactive; inhibition [9]: inactive
CC1CCCCN1S(=O)(=O)c1cccc(N2CCCC2=O)c1 (stereo unspecified)	> 30 µM				
CC1CCCCN1S(=O)(=O)c1ccc(N2CCC2=O)cc1 (stereo unspecified)	5.61 µM	> 30 µM	> 30 µM	> 30 µM	
CC1CCCCN1S(=O)(=O)c1ccc(N2CCCCC2=O)cc1 (stereo unspecified)	3.77 µM	> 30 µM	> 30 µM	> 30 µM	
CC1CCCCN1S(=O)(=O)c1ccc(N2C(=O)c3ccccc3C2=O)cc1 (stereo unspecified)	> 30 µM				
O=C1CCCN1c1ccc(S(=O)(=O)N2CCOCC2)cc1	> 30 µM				
C[C@@H]1CN(S(=O)(=O)c2ccc(N3CCCC3=O)cc2)C[C@H](C)N1	21.2 µM				
CC1CCCCN1S(=O)(=O)c1ccc(N2CCCC2=O)cn1 (stereo unspecified)	2.77 µM	> 30 µM	> 30 µM	> 30 µM	
CC1CCCN(S(=O)(=O)c2ccc(N3CCCC3=O)cc2)C1 (stereo unspecified)	0.084 µM	> 30 µM	> 30 µM	> 30 µM	IC50 [2]: 0.015 µM
O=C1CCCN1c1ccc(S(=O)(=O)N2CCCC2)cc1	> 30 µM				
CC1CCCCN1S(=O)(=O)c1ccccc1N1CCCC1=O (stereo unspecified)	> 30 µM				
CC1CCCCN1S(=O)(=O)c1ccc(N2CCCS2(=O)=O)cc1 (stereo unspecified)	5.22 µM	> 30 µM	> 30 µM	> 30 µM	
O=C1CCCN1c1ccc(S(=O)(=O)N2CCC[C@@H](O)C2)cc1	1.55 µM	> 30 µM	> 30 µM	> 30 µM	
CC1CCN(S(=O)(=O)c2ccc(N3CCCC3=O)cc2)CC1	0.2 µM	> 30 µM	> 30 µM	> 30 µM	
O=C(O)c1ccccc1Nc1cccc(C(F)(F)F)c1 [FLUFENAMIC ACID]					IC50 [7]: 3 µM
C[C@@H]1CCCCN1S(=O)(=O)c1ccc(N2CCCC2=O)cc1		> 30 µM	> 30 µM	> 30 µM	
CC1CCCCN1S(=O)(=O)c1ccc(N2CCCC2=O)cc1 (racemic)		> 30 µM	> 30 µM	> 30 µM	inhibition [8]: inactive; inhibition [9]: inactive
O=C1CCCN1c1ccc(S(=O)(=O)N2CCC[C@H](O)C2)cc1	8.98 µM	> 30 µM	> 30 µM	> 30 µM	
CC1CCCCN1S(=O)(=O)c1ccc(NC(=O)C(C)(C)C)cc1 (stereo unspecified)	5.94 µM	> 30 µM	> 30 µM	> 30 µM	
CC(C)C(=O)Nc1ccc(S(=O)(=O)N2CCCCC2C)cc1 (stereo unspecified)	12.5 µM				
Cc1cccc(Nc2ccccc2C(=O)O)c1C [MEFENAMIC ACID]					IC50 [6]: 2.9 µM; IC50 [10]: > 100 µM; IC50 [7]: 25 µM; IC50 [11]: 3.91 µM
